These results are taken from ChEMBL document CHEMBL1136681, “[3H]-(R)-NPTS, a radioligand for the type 1 glycine transporter” (Bioorg Med Chem Lett, 2003).

The test can be described thus: Inhibition of [3-H]-glycine uptake into rat synaptosomes. In kind it is subcellular, Brain.

Each structure is given as a SMILES string.

With `Cc1ccc(C(=O)c2ccc(OC(CCN(C)CC(=O)O)c3ccccc3)cc2)cc1` (configuration not stated), the IC50 was 153 nM.

Turning to `CN(CCC(Oc1ccc(-c2ccccc2)cc1)c1ccc(F)cc1)CC(=O)O` (configuration not stated), the IC50 was determined as 36.4 nM.
